A short description of this test: Cellular gamma-Secretase Assay: Human neuroglioma H4 cells overexpressing human APP695 with the Swedish double mutation (K595N/M596L) were plated at 30,000 cells/well/100 μl in 96-well plates in IMDM media containing 10% FCS, […] Hygromycin B and incubated at 37° C., 5% CO2.3-4 hr post plating, compounds are a diluted in media and 50 μl is added as 1.5-fold concentrate to achieve the final concentration. Compound incubation is performed for 24 hr. Final doses typically range from 4 μM down to 0.0013 μM in half-log steps resulting in a eight point dose response curve.Appropriate controls using vehicle only and reference compound were applied to this assay. The final concentration of Me2SO was 0.4%.After incubation at 37° C., 5% CO2, the supernatant was subjected to quantification of secreted Aβ42 by the means of an AlphaLisa assay kit (Human Amyloid beta 1-42 Kit: Cat #AL203C, Perkin Elmer). 20 μl of the cell culture supernatant was transferred to an assay plate. Then 10 μl of a mixture of the AlphaLisa coupled capture antibody and the biotinylated detection antibody was added and incubated for 3 hours at room temperature while softly shaking the assay plate. After a further addition of 20 μl of the Donor beads the assay plate was incubated for 30 min at room temperature and constant shaking without exposure to direct light. The assay plate was then read on a Paradigm AlphaLisa Reader using the build-in program with excitation at 680 nm and emission at 570 nm.The measured signals were then used to calculate IC50 values for inhibition of Aβ42 secretion by nonlinear regression fit analysis using XLfit 5.3 software (IDBS).

pEC50: −log10 of the molar value.

Consider 32 molecules from ChEMBL document CHEMBL5728179, “Triazolopyridines” (2020).

What is called pEC50 is the negative decadic logarithm of the EC50, by convention in mol/L.

In the case of `COc1cc(N2C[C@H]3CC[C@@H](C2)[C@@H]3Nc2nc3c(C(C)C)ccc(OCC(F)(F)F)n3n2)ccn1`, the pEC50 was 7.60. In the case of `COc1cc(Nc2nc3c(C(C)C)ccc(OCC(F)(F)F)n3n2)ccc1-n1cnc(C)n1`, the pEC50 was 7.58. As to `Cc1cc(N2C[C@H]3CC[C@@H](C2)[C@@H]3Nc2nc3cccc(OCC(F)(F)F)n3n2)sn1`, the pEC50 was 8.15. In the case of `Cc1ccc(OCC(F)(F)F)n2nc(N[C@@H]3[C@@H]4CC[C@H]3CN(c3cnnc(Cl)c3)C4)nc12` it was 7.33. In the case of `Cc1cc(N2C[C@H]3CC[C@@H](C2)[C@@H]3Nc2nc3c(C(C)C)ccc(OCC(F)(F)F)n3n2)ncn1` it was 7.41.

Regarding `Cc1cn(-c2ccc(Nc3nc4c(C(C)C)ccc(OCC(F)(F)F)n4n3)cc2C#N)cn1`, the negative logarithm of the EC50 (pEC50) is 7.31. Turning to `Cc1cc(N2C[C@H]3CC[C@@H](C2)[C@@H]3Nc2nc3c(C(C)(C)O)ccc(O[C@@H](C)C(F)(F)F)n3n2)ncn1`, the negative-log EC50 (pEC50) was 7.46. The value for `CC(C)c1ccc(O[C@@H](C)C(F)(F)F)n2nc(N[C@@H]3[C@@H]4CC[C@H]3CN(c3cnnc(Cl)c3)C4)nc12` was 7.88. As to `CC(C)c1ccc(OCC(F)(F)F)n2nc(N[C@@H]3[C@@H]4CC[C@H]3CN(c3ccnc(Cl)c3)C4)nc12`, the pEC50 is 7.93. For the molecule `Cc1noc(N2C[C@H]3CC[C@@H](C2)[C@@H]3Nc2nc3c(C(C)C)ccc(O[C@@H](C)C(F)(F)F)n3n2)n1`, the pEC50 is 7.31. In the case of `COc1cc(N2C[C@H]3CC[C@@H](C2)[C@@H]3Nc2nc3c(C(C)C)ccc(O[C@@H](C)C(F)(F)F)n3n2)cnn1` it was 7.85. `COc1cc(Nc2nc3c(C(F)(F)F)ccc(O[C@@H](C)C(F)(F)F)n3n2)ccc1-n1cnc(C)n1`: the negative-log EC50 (pEC50) was 7.39. In the case of `COc1cc(Nc2nc3c(C(C)(C)O)ccc(O[C@@H](C)C(F)(F)F)n3n2)ccc1-n1cnc(Cl)n1` it was 7.37; in that of `Cc1ccc(OCC(F)(F)F)n2nc(N[C@@H]3[C@@H]4CC[C@H]3CN(c3ccnc(C(F)(F)F)c3)C4)nc12`, 7.69; in that of `C[C@H](Oc1ccc(C(C)(C)O)c2nc(N[C@@H]3[C@@H]4CC[C@H]3CN(c3cnnc(Cl)c3)C4)nn12)C(F)(F)F`, 7.40.

As for `Cc1cc(N2C[C@H]3CC[C@@H](C2)[C@@H]3Nc2nc3c(C(C)(C)O)ccc(OCC(F)(F)F)n3n2)ncn1`, the pEC50 was 7.36. The value for `Cc1noc(N2C[C@H]3CC[C@@H](C2)[C@@H]3Nc2nc3c(C(C)C)ccc(OCC(F)(F)F)n3n2)n1` was 7.43; that for `Cc1ncn(-c2ccc(Nc3nc4c(C(C)C)ccc(OCC(F)(F)F)n4n3)cc2OC(F)F)n1` was 7.47; that for `COc1cc(N2C[C@H]3CC[C@@H](C2)[C@@H]3Nc2nc3c(C)ccc(OCC(F)(F)F)n3n2)ccn1` was 7.81.

For `COc1cc(Nc2nc3c(C(C)(C)O)ccc(O[C@@H](C)C(F)(F)F)n3n2)ccc1-n1cnc(C)n1`, the pEC50 was 7.41. The value for `CC(C)(O)c1ccc(OCC(F)(F)F)n2nc(N[C@@H]3[C@@H]4CC[C@H]3CN(c3ccnc(C(F)(F)F)c3)C4)nc12` was 7.35; that for `Cc1cn(-c2ccc(Nc3nc4c(C(C)(C)O)ccc(O[C@@H](C)C(F)(F)F)n4n3)cc2C#N)cn1` was 7.43; that for `Cc1ccc(OCC(F)(F)F)n2nc(N[C@@H]3[C@@H]4CC[C@H]3CN(c3ccnc(Cl)c3)C4)nc12` was 8.04. For `COc1cc(N2C[C@H]3CC[C@@H](C2)[C@@H]3Nc2nc3c(C(C)C)ccc(OCC(F)(F)F)n3n2)cnn1`, the negative logarithm of the EC50 (pEC50) is 7.67. In the case of `CC(C)c1ccc(OCC(F)(F)F)n2nc(N[C@@H]3[C@@H]4CC[C@H]3CN(c3cnnc(Cl)c3)C4)nc12` it was 7.63.

Regarding `Cc1nnc(N2C[C@H]3CC[C@@H](C2)[C@@H]3Nc2nc3c(C(C)C)ccc(O[C@@H](C)C(F)(F)F)n3n2)o1`, the pEC50 was 7.36.

For the molecule `CC(C)c1ccc(OCC(F)(F)F)n2nc(N[C@@H]3[C@@H]4CC[C@H]3CN(c3ccnc(C(F)(F)F)c3)C4)nc12`, the pEC50 is 7.48. In the case of `COc1cc(Nc2nc3c(C(C)C)ccc(OCC(F)(F)F)n3n2)ccc1-c1ccnc(C)c1` it was 7.67. For `Cc1cc(N2C[C@H]3CC[C@@H](C2)[C@@H]3Nc2nc3c(C)ccc(OCC(F)(F)F)n3n2)ncn1`, the negative-log EC50 (pEC50) is 7.52. The value for `FC(F)(F)COc1cccc2nc(N[C@@H]3[C@@H]4CC[C@H]3CN(c3ccnc(C(F)(F)F)c3)C4)nn12` was 7.36; that for `Cc1ncn(-c2ccc(Nc3nc4c(C(C)(C)O)ccc(OCC(F)(F)F)n4n3)cc2OC(F)F)n1` was 7.34; that for `COc1cc(N2C[C@H]3CC[C@@H](C2)C3Nc2nc3c(C(C)C)ccc(O[C@@H](C)C(F)(F)F)n3n2)ccn1` (some centres not stated) was 7.71.
